Measurements: ChEMBL document CHEMBL1121455, “N-(alpha-Hydroxyalkanoyl) derivatives of Leu-Val-Phe-OCH3 as inhibitors of renin” (J Med Chem, 1980)
Residues, ends and D or L forms follow the SMILES beside them.

The molecules below were run against T1, Renin (Homo sapiens, UniProt P00797) (assay: Inhibition of human amniotic renin was tested and determined by Dixon plots).
T1 sequence (P00797 whole entry): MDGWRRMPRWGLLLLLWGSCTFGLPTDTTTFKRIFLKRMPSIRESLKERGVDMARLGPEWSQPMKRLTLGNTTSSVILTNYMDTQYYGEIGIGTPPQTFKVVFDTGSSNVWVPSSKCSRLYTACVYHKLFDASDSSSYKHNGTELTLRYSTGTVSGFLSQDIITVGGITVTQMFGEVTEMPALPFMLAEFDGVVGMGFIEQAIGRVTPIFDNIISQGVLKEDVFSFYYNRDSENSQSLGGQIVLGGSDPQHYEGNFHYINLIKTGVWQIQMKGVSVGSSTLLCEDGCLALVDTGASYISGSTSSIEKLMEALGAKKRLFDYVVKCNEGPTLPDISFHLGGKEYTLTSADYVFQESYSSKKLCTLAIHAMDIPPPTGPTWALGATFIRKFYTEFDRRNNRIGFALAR

SMILES	Ki [µM]
COC(=O)[C@H](Cc1ccccc1)NC(=O)[C@@H](NC(=O)[C@H](CC(C)C)NC(=O)[C@H](O)C(C)C)C(C)C	1780
COC(=O)[C@H](Cc1ccccc1)NC(=O)[C@@H](NC(=O)[C@H](CC(C)C)NC(=O)[C@H](O)c1ccccc1)C(C)C	980
COC(=O)[C@H](Cc1ccccc1)NC(=O)[C@@H](NC(=O)[C@H](CC(C)C)NC(=O)[C@@H](O)Cc1ccccc1)C(C)C (HELM PEPTIDE1{[O=C([C@@H](O)Cc1ccccc1)[*:2]].L.V.F.[CO[*:1]]}$$$$V2.0)	670
COC(=O)[C@H](Cc1ccccc1)NC(=O)[C@@H](NC(=O)[C@H](CC(C)C)NC(=O)[C@@H](O)c1ccccc1)C(C)C	530

Continued, values first:

Ki [µM]	SMILES
230	COC(=O)[C@H](Cc1ccccc1)NC(=O)[C@@H](NC(=O)[C@H](CC(C)C)NC(=O)[C@@H](O)CC(C)C)C(C)C
300	COC(=O)[C@H](Cc1ccccc1)NC(=O)[C@@H](NC(=O)[C@H](CC(C)C)NC(=O)[C@@H](O)C(C)C)C(C)C
1140	COC(=O)[C@H](Cc1ccccc1)NC(=O)[C@@H](NC(=O)[C@H](CC(C)C)NC(=O)[C@@H](N)CC(C)C)C(C)C (HELM PEPTIDE1{L.L.V.F.[CO[*:1]]}$$$$V2.0)
600	COC(=O)[C@H](Cc1ccccc1)NC(=O)[C@@H](NC(=O)[C@H](CC(C)C)NC(=O)[C@H](O)CC(C)C)C(C)C
